Read-outs that look alike come from different tables or passages of the source.
Legend:
[1] = Metabolic stability in mouse liver microsomes; type: in vitro ADME; details: 5 μM compound, 1 mg/mL mouse liver microsomes, 37° C., NADPH regenerating system
Description: (§1) In order to confirm the metabolic stability of the synthetic compounds in the liver, 5 μM test compound and 1 mg/mL human, dog, rat or mouse liver microsomes were allowed to react with each other at 37° C. in the presence of the NADPH regenerating system for 1 hour. After 1 hour, the reaction was terminated and the supernatant obtained by centrifugation was analyzed by HPLC. With the peak value obtained as the analysis result, the residual amount (%) was calculated using the following equation through the peak value of the test compound after 1 hour of the reaction versus the peak value of the test compound at 0 min. Residual amount (%)=(peak value of test compound after 1 hour of reaction/peak value of test compound at 0 min)×100

EZH1 = molecular target: T1, EZH1 (Homo sapiens, UniProt Q92800); assay: Inhibitory activity against EZH1 methyltransferase (radiometric scintillation proximity assay); type: biochemical; details: 2.3 nmol/L enzyme, 90 minutes, room temperature;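 note: Read-out is methylation of a substrate peptide, captured on streptavidin-coated SPA beads and counted by scintillation, in Tris-HCl buffer at pH 8.0 with 1% DMSO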
T1 construct: purchased Reaction Biology Corp. (contract assay)
Description: The inhibitory activities of the synthetic compounds against EZH1 or EZH2 methyltransferase were measured. The experiment was conducted by Reaction Biology Corp., and the activity of EZH1 or EZH2 was measured using a radiometric scintillation proximity assay. […] The reaction buffer consisted of 50 mmol/L Tris-HCl (pH 8.0), 50 mmol/L NaCl, 1 mmol/L EDTA, 1 mmoL/L DTT, 1 mmol/L PMSF, and 1% DMSO. Trichloroacetic acid was added to terminate the reaction, and PVT streptavidin-coated SPA beads were added to each reaction solution, followed by further reaction at room temperature for 1 hour again. The methylation value of the substrate peptide was measured using the TopCount NXT plate reader.

[2] = system: Pfeiffer (EZH2 A677G mutation); assay: Cell growth inhibition test, Pfeiffer; type: cell-based; details: Homo sapiens, read-out: Cell growth inhibitory activity (GI50, nM) Pfeiffer (EZH2 A677G mutation)
Description: Each type of the cultured cells was seeded in 6-well plates or 48-96 well plates, and subculture or medium replacement was performed every 3 to 4 days. Next, the cells were subcultured for a total of 7 to 14 days, and then seeded in 96-well plates. 3 to 5 days before the measurement of the effect, the cells were seeded in 96-well plates, and then the absorbance (Tz) on the day of seeding was measured. The absorbance after the reaction was measured by the plate reader device Synergy NeoAlpha (Biotek) using Cell-Titer-Glo Cell Viability Assay (Promega, G7573) according to the attached manual. Based on the absorbance (Tz) measured on the seeding day and the absorbance of each of the DMSO-treated group (C) and the sample-added group (Ti) measured on the day of effect determination, the percentage of cell proliferation inhibition was calculated according to the following Equation 1. [(Ti−Tz)/(C−Tz)]×100 for concentrations for which Ti≥Tz […] for concentrations for which Ti<Tz. [Equation 1]

[3] = Mouse pharmacokinetics, oral single dose; type: in vivo; details: plasma, mice (ICR, male), oral single dose 30 mg/kg; for AUC: read-out: Area under oral curve (AUC)
Description: Pharmacokinetics of the synthetic compounds as EZH2 inhibitors in mice (ICR, 8-week-old, male) were tested.
The oral administration group was maintained in a fasting state from the day before the test to 4 hours after administration of the test compound. On the day of administration of the test compound, the weight of each animal was measured and each synthetic compound was formulated using a selected solvent based on 30 mg/kg (10 mL/kg). Each test compound was administered orally in a single dose, a certain amount of the blood was taken at a predetermined time, plasma was isolated therefrom, and the concentration of each test compound in the plasma was analyzed using LC-MS/MS (Waters UPLC H-Class/Xevo TQ; Waters, USA). Pharmacokinetic coefficients were calculated by a linear-log trapezoidal summation formula using a non-compartment analysis of the Phoenix™ WinNonlin (Certara, USA) program through the plasma concentration curve over time.

[4] = system: KARPAS-422 (EZH2 Y641N mutation); assay: Cell growth inhibition test, KARPAS-422; type: cell-based; details: KARPAS-422, culture time 7 days, read-out: Cell growth inhibitory activity (GI50, nM) KARPAS-422 (EZH2 Y641N mutation)
EZH2 = EZH2 (Homo sapiens, UniProt Q15910); assay: Inhibitory activity against EZH2 methyltransferase (radiometric scintillation proximity assay); details: Enzyme inhibitory activity (IC50, nM) EZH2, 2.3 nmol/L enzyme, 90 minutes, room temperature;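 note: Read-out is substrate peptide methylation, captured on streptavidin-coated SPA beads and counted by scintillation, with the reaction run in Tris-HCl buffer at pH 8.0 containing 1% DMSO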
[5] = Metabolic stability in human liver microsomes; type: in vitro ADME; details: 5 μM compound, 1 mg/mL human liver microsomes, 37° C., NADPH regenerating system
Description: as §1

[6] = Homo sapiens, KARPAS-422, 168 h

T1 sequence (Q92800 whole entry): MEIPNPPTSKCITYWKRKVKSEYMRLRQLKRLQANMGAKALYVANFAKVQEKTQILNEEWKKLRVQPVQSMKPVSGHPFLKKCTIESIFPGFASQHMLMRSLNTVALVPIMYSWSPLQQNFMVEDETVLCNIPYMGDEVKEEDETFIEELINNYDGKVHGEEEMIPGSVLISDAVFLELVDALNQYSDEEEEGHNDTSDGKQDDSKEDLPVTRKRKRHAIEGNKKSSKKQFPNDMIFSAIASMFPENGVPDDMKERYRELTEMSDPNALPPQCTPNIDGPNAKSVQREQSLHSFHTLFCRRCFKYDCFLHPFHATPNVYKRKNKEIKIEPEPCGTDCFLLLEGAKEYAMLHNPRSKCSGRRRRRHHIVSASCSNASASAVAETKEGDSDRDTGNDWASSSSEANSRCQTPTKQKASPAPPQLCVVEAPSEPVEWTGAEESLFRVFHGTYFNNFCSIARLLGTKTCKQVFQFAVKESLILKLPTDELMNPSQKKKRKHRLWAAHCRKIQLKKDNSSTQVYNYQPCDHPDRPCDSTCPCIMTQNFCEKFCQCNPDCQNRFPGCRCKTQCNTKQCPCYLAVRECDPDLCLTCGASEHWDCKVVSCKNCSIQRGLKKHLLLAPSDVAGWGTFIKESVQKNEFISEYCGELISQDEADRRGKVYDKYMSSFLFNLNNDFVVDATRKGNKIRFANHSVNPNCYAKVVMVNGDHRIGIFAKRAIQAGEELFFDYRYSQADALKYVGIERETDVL
T1 sequence (O75530 whole entry partner): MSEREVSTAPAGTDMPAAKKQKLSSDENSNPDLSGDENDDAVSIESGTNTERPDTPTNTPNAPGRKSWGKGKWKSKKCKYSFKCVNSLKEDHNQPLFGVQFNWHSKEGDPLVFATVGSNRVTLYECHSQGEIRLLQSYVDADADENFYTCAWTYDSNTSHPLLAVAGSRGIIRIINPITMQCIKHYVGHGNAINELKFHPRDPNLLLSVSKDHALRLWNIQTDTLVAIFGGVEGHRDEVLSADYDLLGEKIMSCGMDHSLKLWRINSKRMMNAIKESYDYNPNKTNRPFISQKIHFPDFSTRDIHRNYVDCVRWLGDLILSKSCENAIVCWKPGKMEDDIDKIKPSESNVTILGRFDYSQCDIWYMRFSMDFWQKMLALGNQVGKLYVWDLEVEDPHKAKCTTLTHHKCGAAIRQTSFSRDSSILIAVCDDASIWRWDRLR
T1 sequence (Q15022 whole entry partner): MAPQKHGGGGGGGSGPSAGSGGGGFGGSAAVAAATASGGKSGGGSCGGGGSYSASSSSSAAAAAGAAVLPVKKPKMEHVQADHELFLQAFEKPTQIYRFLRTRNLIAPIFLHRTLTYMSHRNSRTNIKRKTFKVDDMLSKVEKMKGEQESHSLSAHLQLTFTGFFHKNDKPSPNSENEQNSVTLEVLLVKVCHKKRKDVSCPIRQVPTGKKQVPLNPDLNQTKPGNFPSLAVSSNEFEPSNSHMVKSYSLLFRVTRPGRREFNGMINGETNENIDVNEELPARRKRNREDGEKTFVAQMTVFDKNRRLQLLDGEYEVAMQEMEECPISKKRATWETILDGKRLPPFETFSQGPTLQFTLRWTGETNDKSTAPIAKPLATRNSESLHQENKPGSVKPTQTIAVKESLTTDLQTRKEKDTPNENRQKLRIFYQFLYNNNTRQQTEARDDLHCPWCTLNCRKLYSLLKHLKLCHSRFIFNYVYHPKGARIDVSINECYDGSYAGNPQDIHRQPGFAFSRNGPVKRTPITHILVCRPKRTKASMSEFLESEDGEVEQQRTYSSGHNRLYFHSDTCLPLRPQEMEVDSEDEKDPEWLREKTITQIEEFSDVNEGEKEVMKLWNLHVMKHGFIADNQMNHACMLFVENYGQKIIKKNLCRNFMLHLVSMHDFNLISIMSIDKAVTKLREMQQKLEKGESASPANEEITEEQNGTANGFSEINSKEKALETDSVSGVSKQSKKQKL
T1 sequence (Q09028 whole entry partner): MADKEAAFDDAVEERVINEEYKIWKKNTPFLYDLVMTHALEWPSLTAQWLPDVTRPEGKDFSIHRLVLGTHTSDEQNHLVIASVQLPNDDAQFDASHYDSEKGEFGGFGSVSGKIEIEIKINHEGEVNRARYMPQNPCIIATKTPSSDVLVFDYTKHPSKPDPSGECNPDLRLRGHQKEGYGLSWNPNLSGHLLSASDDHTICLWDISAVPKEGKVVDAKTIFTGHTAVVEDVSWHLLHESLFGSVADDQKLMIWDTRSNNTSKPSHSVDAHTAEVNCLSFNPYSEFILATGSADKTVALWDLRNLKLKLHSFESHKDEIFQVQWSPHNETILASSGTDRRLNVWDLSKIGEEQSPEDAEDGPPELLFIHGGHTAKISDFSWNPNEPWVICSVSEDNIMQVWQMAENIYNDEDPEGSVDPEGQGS
T1 sequence (Q6ZN18 whole entry partner): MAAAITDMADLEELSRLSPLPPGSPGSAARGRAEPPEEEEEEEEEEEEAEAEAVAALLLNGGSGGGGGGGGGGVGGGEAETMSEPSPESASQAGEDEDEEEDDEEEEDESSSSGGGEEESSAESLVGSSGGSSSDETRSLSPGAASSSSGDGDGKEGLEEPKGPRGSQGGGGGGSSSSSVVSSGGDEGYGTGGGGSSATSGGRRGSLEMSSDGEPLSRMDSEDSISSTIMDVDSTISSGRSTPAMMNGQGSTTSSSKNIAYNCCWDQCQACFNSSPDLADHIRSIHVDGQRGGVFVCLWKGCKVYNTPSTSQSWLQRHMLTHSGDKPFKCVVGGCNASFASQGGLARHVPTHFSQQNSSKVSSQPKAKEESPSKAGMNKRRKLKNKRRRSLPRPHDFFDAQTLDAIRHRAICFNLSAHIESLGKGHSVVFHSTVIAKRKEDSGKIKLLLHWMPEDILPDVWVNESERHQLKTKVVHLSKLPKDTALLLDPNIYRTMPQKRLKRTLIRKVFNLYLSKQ
Chain of EZH2 (Q15910 whole entry): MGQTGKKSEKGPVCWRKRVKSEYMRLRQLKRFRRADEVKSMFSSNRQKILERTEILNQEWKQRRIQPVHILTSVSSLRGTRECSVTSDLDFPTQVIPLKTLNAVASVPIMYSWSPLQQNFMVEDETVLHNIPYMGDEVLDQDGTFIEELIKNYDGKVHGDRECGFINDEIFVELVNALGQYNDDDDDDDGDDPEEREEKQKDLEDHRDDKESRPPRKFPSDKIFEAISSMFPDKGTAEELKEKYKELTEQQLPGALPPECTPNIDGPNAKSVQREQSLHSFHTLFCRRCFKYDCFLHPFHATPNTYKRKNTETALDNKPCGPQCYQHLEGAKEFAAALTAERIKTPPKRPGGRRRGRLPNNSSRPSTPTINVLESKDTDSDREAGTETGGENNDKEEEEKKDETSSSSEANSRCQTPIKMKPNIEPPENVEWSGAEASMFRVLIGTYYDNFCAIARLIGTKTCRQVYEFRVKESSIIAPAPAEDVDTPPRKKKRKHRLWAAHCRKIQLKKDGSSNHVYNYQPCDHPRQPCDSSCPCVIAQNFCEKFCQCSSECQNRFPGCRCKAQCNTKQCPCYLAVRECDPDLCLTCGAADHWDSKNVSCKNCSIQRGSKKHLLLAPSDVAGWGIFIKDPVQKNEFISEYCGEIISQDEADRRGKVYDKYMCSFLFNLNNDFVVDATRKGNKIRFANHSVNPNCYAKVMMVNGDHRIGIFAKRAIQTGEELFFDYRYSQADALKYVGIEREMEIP
Chain of EZH2 (O75530 whole entry partner): as the sequence (O75530 whole entry partner) above
Chain of EZH2 (Q15022 whole entry partner): as the sequence (Q15022 whole entry partner) above
Chain of EZH2 (Q09028 whole entry partner): as the sequence (Q09028 whole entry partner) above
Chain of EZH2 (Q6ZN18 whole entry partner): as the sequence (Q6ZN18 whole entry partner) above

SMILES	Residual amount (%) of test compound after 1 hour of reaction, Mouse [1]	IC50 (EZH1)	GI50 [2]	AUC ([3]; male, ICR, mouse, po, 30 mg/kg)	GI50 [4, 6]	IC50 (EZH2)	Residual amount (%) of test compound after 1 hour of reaction, Human [5]	Half life T1/2 [3]	GI50 [4]	half-life ([3]; male, ICR, mouse, po, 30 mg/kg, read-out: Half life T1/2 (converted))	Area under oral curve (AUC) ([3]; 30 mg/kg)	Half life T1/2 ([3]; 30 mg/kg)
COc1cc(C)[nH]c(=O)c1CN1CCc2c(Cl)c3c(c(C)c2C1=O)OC(C)([C@H]1CC[C@H](N(C)C)CC1)O3 (stereo partly drawn) [Compound 13, 9-chloro-2-(trans-4-(dimethylamino)cyclohexyl)-6-((4-methoxy-6-methyl-2-oxo-1,2-dihydropyridin-3-yl)methyl)-2,4-dimethyl-7,8-dihydro-[1,3]dioxolo[4,5-g]isoquinolin-5(6H)-one]	79%	23 to 35 nM	0.27 nM	1040 ng·h/mL	1.8 to 9.6 nM	1.8 to 2.3 nM	82%	–	–	–	–	–
Cc1cc(C)c(CN2CCc3c(Cl)c4c(c(C)c3C2=O)OC(C)([C@H]2CC[C@H](N(C)C)CC2)O4)c(=O)[nH]1 (mixture of isomers) [Compound 9, 9-chloro-6-((4,6-dimethyl-2-oxo-1,2-dihydropyridin-3-yl)methyl)-2-(trans-4-(dimethylamino)cyclohexyl)-2,4-dimethyl-7,8-dihydro-[1,3]dioxolo[4,5-g]isoquinolin-5(6H)-one]	56%	16 to 43 nM	0.97 nM	14900 to 16400 ng·h/mL	2 to 15 nM	1.5 to 5 nM	57%	2.4~2.3 hr	–	–	–	–
Cc1cc(C)c(CN2CCc3c(C)c4c(c(C)c3C2=O)OC(C)([C@H]2CC[C@H](N(C)C)CC2)O4)c(=O)[nH]1 (single isomer, unassigned) [Compound 40, 6-((4,6-dimethyl-2-oxo-1,2-dihydropyridin-3-yl)methyl)-2-(trans-4-(dimethylamino)cyclohexyl)-2,4,9-trimethyl-7,8-dihydro-[1,3]dioxolo[4,5-g]isoquinolin-5(6H)-one]	84%	28 nM	0.71 nM	–	–	1.8 nM	82%	–	1.8 nM	–	–	–
Cc1cc(C)c(CN2CCc3c(Br)c4c(c(C)c3C2=O)OC(C)([C@H]2CC[C@H](N(C)C)CC2)O4)c(=O)[nH]1 (stereo partly drawn) [Compound 48, 9-bromo-6-((4,6-dimethyl-2-oxo-1,2-dihydropyridin-3-yl)methyl)-2-(trans-4-(dimethylamino)cyclohexyl)-2,4-dimethyl-7,8-dihydro-[1,3]dioxolo[4,5-g]isoquinolin-5(6H)-one]	52%	–	0.77 nM	17300 to 18700 ng·h/mL	3.7 to 12.4 nM	–	54%	–	–	2.8 to 3.2 h	–	–
Cc1cc(C)c(CN2CCc3c(Br)c4c(c(C)c3C2=O)OC(C)([C@H]2CC[C@H](N(C)C)CC2)O4)c(=O)[nH]1 (single isomer, unassigned) [Compound 50, 9-bromo-6-((4,6-dimethyl-2-oxo-1,2-dihydropyridin-3-yl)methyl)-2-(trans-4-(dimethylamino)cyclohexyl)-2,4-dimethyl-7,8-dihydro-[1,3]dioxolo[4,5-g]isoquinolin-5(6H)-one]	54%	–	–	–	–	–	35%	–	419 nM	–	12,239 ng · hr/mL	2.5 h
COc1cc(C)[nH]c(=O)c1CN1CCc2c(C)c3c(c(C)c2C1=O)OC(C)([C@H]1CC[C@H](N(C)C)CC1)O3 (stereo partly drawn) [Compound 42, 2-(trans-4-(dimethylamino)cyclohexyl)-6-((4-methoxy-6-methyl-2-oxo-1,2-dihydropyridin-3-yl)methyl)-2,4,9-trimethyl-7,8-dihydro-[1,3]dioxolo[4,5-g]isoquinolin-5(6H)-one]	88%	31 to 34 nM	0.97 to 1.41 nM	–	2.6 to 8.8 nM	3.4 to 6 nM	74%	–	–	–	–	–
Cc1cc(C)c(CN2CCc3c(C)c4c(c(Cl)c3C2=O)OC(C)([C@H]2CC[C@H](N(C)C)CC2)O4)c(=O)[nH]1 (some centres unmarked) [Compound 4]	79%	20 nM	–	770 ng·h/mL	1.9 to 2.6 nM	2.6 nM	84%	–	–	–	–	–
CN[C@H]1CC[C@H](C2(C)Oc3c(C)c4c(c(Cl)c3O2)CCN(Cc2c(C)cc(C)[nH]c2=O)C4=O)CC1 (stereo partly drawn) [Compound 34, 9-chloro-6-((4,6-dimethyl-2-oxo-1,2-dihydropyridin-3-yl)methyl)-2,4-dimethyl-2-(trans-4-(methylamino)cyclohexyl)-7,8-dihydro-[1,3]dioxolo[4,5-g]isoquinolin-5(6H)-one]	100%	9.7 nM	1.48 nM	–	3.2 nM	1.4 nM	66%	–	–	–	–	–
Cc1cc(C)c(CN2CCc3c(Cl)c4c(c(C)c3C2=O)OC(C)([C@H]2CC[C@H](N(C)C)CC2)O4)c(=O)[nH]1 (single isomer, unassigned) [Compound 10, 9-chloro-6-((4,6-dimethyl-2-oxo-1,2-dihydropyridin-3-yl)methyl)-2-(trans-4-(dimethylamino)cyclohexyl)-2,4-dimethyl-7,8-dihydro-[1,3]dioxolo[4,5-g]isoquinolin-5(6H)-one]	55%	10 to 21 nM	0.84 nM	–	–	0.8 to 1.4 nM	79%	–	2.5 to 13 nM	–	–	–
Cc1cc(C)c(CN2CCc3c(Cl)c4c(c(C)c3C2=O)OC(C)([C@H]2CC[C@@H](N(C)C)CC2)O4)c(=O)[nH]1 (stereo partly drawn) [Compound 12, 9-chloro-6-((4,6-dimethyl-2-oxo-1,2-dihydropyridin-3-yl)methyl)-2-(cis-4-(dimethylamino)cyclohexyl)-2,4-dimethyl-7,8-dihydro-[1,3]dioxolo[4,5-g]isoquinolin-5(6H)-one]	61%	23 to 50 nM	0.66 nM	–	4.9 to 15 nM	3.2 nM	57%	–	–	–	–	–
CCCc1cc(C)[nH]c(=O)c1CN1CCc2c(C)c3c(c(C)c2C1=O)OC(C)([C@H]1CC[C@H](N(C)C)CC1)O3 (some centres unmarked) [Compound 43]	61%	8.1 nM	6.76 nM	–	58 nM	1.4 nM	52%	–	–	–	–	–
CN[C@H]1CC[C@H](C2(C)Oc3c(C)c4c(c(Br)c3O2)CCN(Cc2c(C)cc(C)[nH]c2=O)C4=O)CC1 (stereo partly drawn) [Compound 51, 9-bromo-6-((4,6-dimethyl-2-oxo-1,2-dihydropyridin-3-yl)methyl)-2,4-dimethyl-2-(trans-4-(methylamino)cyclohexyl)-7,8-dihydro-[1,3]dioxolo[4,5-g]isoquinolin-5(6H)-one]	64%	41 nM	–	1520 ng·h/mL	4.4 nM	1.6 nM	70%	–	–	–	–	–

From US12344618B2, “Heterotricyclic derivative compound and use of same” (HANMI PHARMACEUTICAL CO., LTD., priority 2019, dated 2025)
